Laboratory results reported in paper PMC4503439, “Dose-Independent ADME Properties and Tentative Identification of Metabolites of α-Mangostin from Garcinia mangostana in Mice by Automated Microsampling and UPLC-MS/MS Methods” (PLoS ONE, 2015).
Read-outs that look alike come from different tables or passages of the source.

Tests used:
[1] = Metabolism of α-MG in in vitro S9 fraction of liver; assay type: in vitro ADME, mice; details: 30 min incubation, NADPH and UDPGA
Source text: The procedures for using S9 fractions from various tissues were similar those already reported. Each liver, stomach, small intestine, large intestine, lung, heart, kidney, fat, mesentery, muscle, and brain was excised after cervical dislocation (n = 6). Each tissue sample was rinsed with cold 0.9% NaCl-injectable solution, blotted dry with tissue paper and weighed. Then each tissue was homogenized with a volume of 0.25 M sucrose at 4 times of each tissue. Metabolic activity was initiated by adding a 100 μL aliquot of the 9000 × g supernatant fraction (S9) of each tissue to a 135 μL of Tris-buffer (pH 7.4), 5 μL of 0.9% NaCl-injectable solution with 1 or 20 μg/mL α-MG as a final concentration, 5 μL (1 mM) of NADPH and 5 μL (3.3 mM) of UDPGA. A 250 μL aliquot of acetonitrile (containing 1 μg/mL of the IS) was added after a 30 min incubation in a thermomixer (37°C and 500 opm) to terminate the enzyme activity. The amount of remaining α-MG in the S9 fraction of each tissue was determined using the HPLC-MS/MS analytical method.

P-glycoprotein = molecular target: T1, P-glycoprotein (Homo sapiens, UniProt P08183); experiment: P-glycoprotein substrate test in MDCK-mdr1 cell line; assay type: in vitro ADME; details: our unpublished data
T1 construct: expressed in transfected cells; host or cells: MDCK-mdr1 (canine kidney cells carrying an mdr1 transgene; transfection is inferred from the cell line name)

[2] = Stability of α-MG in various buffer solutions; assay type: physicochemical; details: pHs ranging from 2 to 13; unpublished data
[3] = Pharmacokinetics of α-MG after oral administration to mice (automated microsampling); assay type: in vivo; details: for CL renal / Cmax / AUC / Tmax / half-life / Ae 0–24 h / GI 24 h: oral; for Tmax: median (ranges); for half-life: read-out: Terminal half-life
Method: (§1) The surgical procedures were conducted under intramuscular injection anesthesia with 125 mg (1.5 mL)/kg of tiletamine HCl and zolazepam HCl mixture. The carotid artery (for intravenous and oral studies) and the jugular vein (for intravenous study) were cannulated using CX-2052S and CX-2022S catheters (BASi, West Lafayette, IN), respectively. After the mice awoke from anesthesia, the administration of α-MG and blood sampling were performed, [12], [31].
α-MG (the same solution as used in the intravenous study) at doses of 10, 50 and 100 mg (10 mL)/kg was administered orally using a gastric gavage tube after overnight fasting with free access to water. A blood sample using the microsampling system was collected via the carotid artery at 0, 5, 15, 30, 60, 90, 120, 180, 240, 300 and 360 min after the oral administration of α-MG. Other procedures were similar to those in the intravenous study.
(§2) The analytical method for measuring α-MG was modified from a previous report. In sample preparation, 100 μL of acetonitrile containing 1 μg/mL IS was added to 50 μL of aliquot of the sample. After vortex-mixing and centrifugation (15000 × g for 10 min), 10 μL of the supernatant was directly injected into a reversed-phase C18 column (Cadenza CD-C18, 2 mm × 75 mm i.d., 3-μm particle size; Imtakt, USA) kept at 4°C until injection. The analytes were monitored using a API4000 triple quadrupole mass spectrometer (AB Sciex, Foster City, CA) equipped with a turbo ion-spray interface for electrospray ionization and operated in positive ion mode at 5500 V and 500°C at 50 L/min of nebulizing gas flow, 50 L/min of turbo ion-spray gas flow, 20 L/min of curtain gas flow, 5500 V of ring voltage and 5 Torr of collision gas (nitrogen) pressure.
(§3) Standard methods were used to calculate the following pharmacokinetic parameters using a non-compartmental analysis (WinNonlin 2.1; Pharmasight Corp., Mountain View, CA). The extent of absolute oral bioavailability (F) was calculated by dividing the AUCoral/AUCiv at the same dose. The peak plasma concentration (C max) and time to reach C max (T max) were read directly from the […] data.

[4] = Pharmacokinetics of α-MG after intravenous administration to mice (automated microsampling); assay type: in vivo; details: for CL renal / MRT / clearance / AUC / half-life / Vd: mouse, plasma; for half-life: read-out: Terminal half-life; for Vd: read-out: V ss
Method: as §1
In intravenous study, α-MG (dissolved in PEG 400: distilled water = 6:4, v/v) at doses of 5, 10 and 20 mg (5 mL)/kg was administered through the jugular vein. The micro-sampling system (Culex BASi, West Lafayette, IN) was programmed to collect a 10 μL sample of blood into a micro-vial containing 50 μL of 12.5 units/mL heparinized saline. Blood loss due to blood sampling was replaced with equal volumes of heparinized saline. Blood samples were collected at 0, 1, 5, 15, 30, 60, 90, 120, 180, 240, 300 and 360 min after intravenous administration of the α-MG with virtually no blood loss. After centrifugation of each micro-vial, 50 μL of supernatant was collected. At the end of 24 h, each metabolic cage was rinsed with 5 mL of distilled water and the resulting fluid combined with the urine collected over the previous 24 h. At this time, each mouse was sacrificed by cervical dislocation, and then the entire gastrointestinal tract (including its contents and feces) was removed, transferred into a beaker that contained 10 mL of methanol (to facilitate the extraction of α-MG) and the gastrointestinal tract was cut into small pieces. After manual shaking and stirring, a 50 μL aliquot of the supernatant was collected from each beaker and stored.
as §2, §3

[5] = intravenous, doses of 5, 10 and 20 mg/kg

T1 sequence (P08183 whole entry): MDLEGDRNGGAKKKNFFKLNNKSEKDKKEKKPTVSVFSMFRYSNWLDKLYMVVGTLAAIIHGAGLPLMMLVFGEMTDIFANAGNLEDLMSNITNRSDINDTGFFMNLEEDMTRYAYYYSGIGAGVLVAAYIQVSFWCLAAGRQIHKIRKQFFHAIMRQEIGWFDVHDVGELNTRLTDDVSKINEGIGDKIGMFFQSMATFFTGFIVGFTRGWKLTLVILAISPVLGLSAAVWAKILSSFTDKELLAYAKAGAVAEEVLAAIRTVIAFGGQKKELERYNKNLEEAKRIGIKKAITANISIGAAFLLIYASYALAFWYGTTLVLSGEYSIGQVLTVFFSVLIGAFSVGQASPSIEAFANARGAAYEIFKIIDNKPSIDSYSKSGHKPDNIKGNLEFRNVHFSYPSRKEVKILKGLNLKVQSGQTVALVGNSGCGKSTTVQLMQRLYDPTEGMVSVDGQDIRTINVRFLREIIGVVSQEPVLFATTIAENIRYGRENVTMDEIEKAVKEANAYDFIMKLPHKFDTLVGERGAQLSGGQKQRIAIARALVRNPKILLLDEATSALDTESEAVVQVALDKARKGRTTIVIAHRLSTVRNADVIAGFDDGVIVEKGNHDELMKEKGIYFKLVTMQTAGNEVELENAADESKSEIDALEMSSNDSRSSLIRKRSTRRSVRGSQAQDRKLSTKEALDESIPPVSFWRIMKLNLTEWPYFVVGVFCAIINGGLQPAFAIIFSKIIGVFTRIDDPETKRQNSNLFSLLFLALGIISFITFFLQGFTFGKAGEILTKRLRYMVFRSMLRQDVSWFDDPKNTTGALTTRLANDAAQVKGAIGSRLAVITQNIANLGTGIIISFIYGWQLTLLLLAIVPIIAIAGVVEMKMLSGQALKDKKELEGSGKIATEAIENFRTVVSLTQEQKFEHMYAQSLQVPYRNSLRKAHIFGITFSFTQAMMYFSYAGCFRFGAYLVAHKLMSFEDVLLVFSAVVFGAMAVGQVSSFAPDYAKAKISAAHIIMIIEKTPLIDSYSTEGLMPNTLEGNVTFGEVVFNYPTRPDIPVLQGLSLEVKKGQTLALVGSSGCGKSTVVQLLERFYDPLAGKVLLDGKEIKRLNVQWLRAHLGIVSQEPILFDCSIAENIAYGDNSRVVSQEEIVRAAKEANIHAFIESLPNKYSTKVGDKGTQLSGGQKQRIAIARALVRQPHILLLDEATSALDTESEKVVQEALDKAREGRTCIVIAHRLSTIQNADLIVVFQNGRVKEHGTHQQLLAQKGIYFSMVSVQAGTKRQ

COc1c(O)cc2oc3cc(O)c(CC=C(C)C)c(O)c3c(=O)c2c1CC=C(C)C [α-MG, α-Mangostin]
disappearance of spiked α-MG ([1]; liver S9, 1 μg/mL): 57.3% | disappearance of spiked α-MG ([1]; liver S9, 20 μg/mL): 51.4% | substrate of P-glycoprotein (P-glycoprotein): substrate of P-glycoprotein | stability in various buffer solutions [2]: stable | first blood sampling time point at which detected in plasma ([3]; after oral administration): 5 min | F unabs ('true' fraction of the oral dose unabsorbed) ([3]; calculated by reported equation assuming linear pharmacokinetics): 0.434 | bioavailability ([3]; mouse, plasma, oral 10 mg/kg, AUCoral/AUCiv at the same dose, read-out: F (absolute oral bioavailability)): 2.29% | CL renal ([3]; mouse, plasma, 10 mg/kg): 0.535 ± 0.309 mL/min/kg | Cmax ([3]; mouse, plasma, 10 mg/kg): 40.3 ± 30.7 ng/mL | AUC ([3]; mouse, plasma, 10 mg/kg (n = 8)): 130 ng·h/mL | Tmax ([3]; mouse, plasma, 10 mg/kg): 1 h | half-life ([3]; mouse, plasma, 10 mg/kg): 177 ± 71.1 min | CL renal ([3]; mouse, plasma, 50 mg/kg): 0.547 ± 0.309 mL/min/kg | Cmax ([3]; mouse, plasma, 50 mg/kg): 242 ± 35 ng/mL | AUC ([3]; mouse, plasma, 50 mg/kg (n = 7)): 622 ng·h/mL | Tmax ([3]; mouse, plasma, 50 mg/kg): 0.5 h | half-life ([3]; mouse, plasma, 50 mg/kg): 197 ± 81 min | CL renal ([3]; mouse, plasma, 100 mg/kg): 0.418 ± 0.229 mL/min/kg | Cmax ([3]; mouse, plasma, 100 mg/kg): 709 ± 397 ng/mL | AUC ([3]; mouse, plasma, 100 mg/kg (n = 9)): 1390 ng·h/mL | Tmax ([3]; mouse, plasma, 100 mg/kg): 1 h | half-life ([3]; mouse, plasma, 100 mg/kg): 151 ± 49.3 min | Ae 0–24 h ([3]; 10 mg/kg): 0.0255 ± 0.0107 % of dose | GI 24 h ([3]; 10 mg/kg): 43.5 ± 10.6 % of dose | Ae 0–24 h ([3]; 50 mg/kg): 0.0315 ± 0.0241 % of dose | GI 24 h ([3]; 50 mg/kg): 40.2 ± 11.6 % of dose | Ae 0–24 h ([3]; 100 mg/kg): 0.0270 ± 0.0113 % of dose | GI 24 h ([3]; 100 mg/kg): 41.2 ± 4.51 % of dose | CLR, fu (CLR based on free fraction in plasma) ([4]; estimated from CLR and unbound fraction): 1.72 to 3.44 mL/min/kg | Ae 0–24 h (excreted in the urine as unchanged α-MG) ([4]; intravenous, 5 mg/kg): 0.839 ± 0.525 % of dose | CLNR ([4]; intravenous, 5 mg/kg): 31.1 ± 7.14 mL/min/kg | GI 24 h (remaining in the gastrointestinal tract at 24 h as unchanged α-MG) ([4]; intravenous, 5 mg/kg): 3.44 ± 1.16 % of dose | Ae 0–24 h (excreted in the urine as unchanged α-MG) ([4]; intravenous, 10 mg/kg): 0.592 ± 0.394 % of dose | CLNR ([4]; intravenous, 10 mg/kg): 31.1 ± 7.83 mL/min/kg | GI 24 h (remaining in the gastrointestinal tract at 24 h as unchanged α-MG) ([4]; intravenous, 10 mg/kg): 2.28 ± 1.96 % of dose | Ae 0–24 h (excreted in the urine as unchanged α-MG) ([4]; intravenous, 20 mg/kg): 0.403 ± 0.163 % of dose | CLNR ([4]; intravenous, 20 mg/kg): 34.6 ± 12.3 mL/min/kg | GI 24 h (remaining in the gastrointestinal tract at 24 h as unchanged α-MG) ([4]; intravenous, 20 mg/kg): 3.42 ± 1.73 % of dose | Ae 0–24 h [4, 5]: less than 0.839 % of the intravenous dose | GI 24 h [4, 5]: less than 3.44 % of the doses | CL renal ([4]; intravenous, 5 mg/kg): 0.283 ± 0.194 mL/min/kg | MRT ([4]; intravenous, 5 mg/kg): 2.42 h | clearance ([4]; intravenous, 5 mg/kg): 31.4 ± 7.28 mL/min/kg | AUC ([4]; intravenous, 5 mg/kg (n = 9)): 2820 ng·h/mL | half-life ([4]; intravenous, 5 mg/kg): 226 ± 34.3 min | Vd ([4]; intravenous, 5 mg/kg): 4.3 ± 1.01 L/kg | CL renal ([4]; intravenous, 10 mg/kg): 0.205 ± 0.15 mL/min/kg | MRT ([4]; intravenous, 10 mg/kg): 2.67 h | clearance ([4]; intravenous, 10 mg/kg): 31.3 ± 7.95 mL/min/kg | AUC ([4]; intravenous, 10 mg/kg (n = 8)): 5670 ng·h/mL | half-life ([4]; intravenous, 10 mg/kg): 219 ± 73.8 min | Vd ([4]; intravenous, 10 mg/kg): 4.27 ± 1.97 L/kg | CL renal ([4]; intravenous, 20 mg/kg): 0.141 ± 0.0801 mL/min/kg | MRT ([4]; intravenous, 20 mg/kg): 2.4 h | clearance ([4]; intravenous, 20 mg/kg): 34.7 ± 12.4 mL/min/kg | AUC ([4]; intravenous, 20 mg/kg (n = 8)): 10600 ng·h/mL | half-life ([4]; intravenous, 20 mg/kg): 173 ± 71.9 min | Vd ([4]; intravenous, 20 mg/kg): 4.5 ± 1.38 L/kg | clearance ([4]; intravenous, range over doses (Table 1)): 31.3 to 34.7 mL/min/kg
